For the assay, the target named is hNav 1.7 (Homo sapiens (Human), UniProt Q15858). Put plainly: Electrophysiological evaluation, automated patch clamp IonWorks Quattro (Population Patch Clamp mode). Format: cell-based. As to conditions: HEK293A cells stably expressing hNav 1.7/β1/β2; response to second depolarization pulse, pre-pulse potential set to V1/2; read-out: hNav1.7 IC50.
Sequence of hNav 1.7 (Q15858 whole entry): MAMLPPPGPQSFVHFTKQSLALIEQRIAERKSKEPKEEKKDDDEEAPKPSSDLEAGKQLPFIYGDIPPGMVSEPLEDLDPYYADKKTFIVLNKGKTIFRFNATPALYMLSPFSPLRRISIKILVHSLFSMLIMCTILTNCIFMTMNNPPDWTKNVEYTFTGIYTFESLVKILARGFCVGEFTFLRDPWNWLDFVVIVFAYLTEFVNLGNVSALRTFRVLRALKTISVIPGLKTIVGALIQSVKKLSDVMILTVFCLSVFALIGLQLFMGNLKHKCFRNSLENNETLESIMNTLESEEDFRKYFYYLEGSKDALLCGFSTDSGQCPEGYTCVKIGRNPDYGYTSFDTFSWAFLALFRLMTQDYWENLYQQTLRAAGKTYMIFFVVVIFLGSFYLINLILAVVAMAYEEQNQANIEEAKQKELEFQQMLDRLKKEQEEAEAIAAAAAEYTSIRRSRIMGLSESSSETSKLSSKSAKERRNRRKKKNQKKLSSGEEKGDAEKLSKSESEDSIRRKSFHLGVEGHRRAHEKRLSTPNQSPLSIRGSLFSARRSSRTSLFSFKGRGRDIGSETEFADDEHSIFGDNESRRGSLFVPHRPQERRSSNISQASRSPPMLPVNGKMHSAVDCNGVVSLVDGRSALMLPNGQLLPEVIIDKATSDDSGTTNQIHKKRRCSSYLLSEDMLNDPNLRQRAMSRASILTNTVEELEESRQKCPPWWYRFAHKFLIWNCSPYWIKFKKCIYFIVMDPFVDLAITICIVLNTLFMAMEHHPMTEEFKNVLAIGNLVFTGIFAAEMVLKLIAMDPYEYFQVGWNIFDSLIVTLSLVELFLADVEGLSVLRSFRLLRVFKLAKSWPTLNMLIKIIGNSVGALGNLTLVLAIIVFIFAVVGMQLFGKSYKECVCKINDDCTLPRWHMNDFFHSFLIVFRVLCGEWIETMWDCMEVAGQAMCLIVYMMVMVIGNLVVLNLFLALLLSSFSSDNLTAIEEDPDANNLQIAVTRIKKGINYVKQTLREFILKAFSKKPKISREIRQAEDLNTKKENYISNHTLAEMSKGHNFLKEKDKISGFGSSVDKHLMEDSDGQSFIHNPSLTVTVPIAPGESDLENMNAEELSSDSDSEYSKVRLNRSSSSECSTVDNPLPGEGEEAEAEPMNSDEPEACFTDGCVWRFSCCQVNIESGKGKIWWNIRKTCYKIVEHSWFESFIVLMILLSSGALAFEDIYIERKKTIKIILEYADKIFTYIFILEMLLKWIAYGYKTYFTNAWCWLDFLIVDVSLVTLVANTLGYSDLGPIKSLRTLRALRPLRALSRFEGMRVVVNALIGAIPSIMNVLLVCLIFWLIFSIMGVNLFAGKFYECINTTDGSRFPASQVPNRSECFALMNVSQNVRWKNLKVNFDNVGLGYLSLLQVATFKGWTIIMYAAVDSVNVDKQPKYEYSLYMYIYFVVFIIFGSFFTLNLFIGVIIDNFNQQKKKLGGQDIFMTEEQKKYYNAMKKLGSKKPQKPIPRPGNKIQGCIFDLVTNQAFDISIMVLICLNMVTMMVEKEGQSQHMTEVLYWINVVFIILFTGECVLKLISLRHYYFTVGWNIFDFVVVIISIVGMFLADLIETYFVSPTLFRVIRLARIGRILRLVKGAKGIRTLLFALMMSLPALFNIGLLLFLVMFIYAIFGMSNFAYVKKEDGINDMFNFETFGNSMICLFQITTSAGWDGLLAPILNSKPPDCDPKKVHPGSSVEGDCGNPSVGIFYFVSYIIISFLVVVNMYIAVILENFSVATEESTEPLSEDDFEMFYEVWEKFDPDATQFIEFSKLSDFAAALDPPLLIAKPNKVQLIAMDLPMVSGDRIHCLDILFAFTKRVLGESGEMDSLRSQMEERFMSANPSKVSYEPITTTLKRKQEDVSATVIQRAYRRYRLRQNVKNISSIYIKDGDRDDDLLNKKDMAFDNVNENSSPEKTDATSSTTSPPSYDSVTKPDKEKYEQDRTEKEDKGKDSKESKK
Sequence of hNav 1.7 (Q07699 19-218 partner): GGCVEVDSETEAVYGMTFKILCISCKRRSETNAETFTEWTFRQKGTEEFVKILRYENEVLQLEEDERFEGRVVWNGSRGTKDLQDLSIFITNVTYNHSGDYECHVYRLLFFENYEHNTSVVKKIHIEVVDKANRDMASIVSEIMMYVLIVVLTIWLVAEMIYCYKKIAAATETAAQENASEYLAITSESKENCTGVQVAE
Sequence of hNav 1.7 (O60939 30-215 partner): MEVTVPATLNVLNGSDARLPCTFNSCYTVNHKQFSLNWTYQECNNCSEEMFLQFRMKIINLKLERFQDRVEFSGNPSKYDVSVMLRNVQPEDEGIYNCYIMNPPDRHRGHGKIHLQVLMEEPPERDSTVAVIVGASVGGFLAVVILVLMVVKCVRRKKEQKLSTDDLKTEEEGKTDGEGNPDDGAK
In the case of `CO[C@H]1C[C@H](Oc2cc(F)c(S(=O)(=O)Nc3ccncn3)cc2F)[C@@H](c2ccnn2C)C1` (relative stereo) [Example 121, 2,5-Difluoro-4-{[(1S*,2R*,4R*)-4-methoxy-2-(1-methyl-1H-pyrazol-5-yl)cyclopentyl]oxy}-N-(pyrimidin-4-yl)benzenesulfonamide], the IC50 was found to be 930 nM.

With `Cn1nccc1[C@H]1CC(F)(F)CC[C@@H]1Oc1ccc(S(=O)(=O)Nc2ccncn2)c(F)c1` (relative stereo) [Example 130, 4-{[(1S*,2R*)-4,4-Difluoro-2-(1-methyl-1H-pyrazol-5-yl)cyclohexyl]oxy}-2-fluoro-N-(pyrimidin-4-yl)benzenesulfonamide], the IC50 amounted to 880 nM.

Turning to `Cn1nccc1[C@H]1CCCC[C@@H]1Oc1cc(F)c(S(=O)(=O)Nc2ccnc(=O)[nH]2)cc1Cl` (relative stereo) [Example 153, 5-Chloro-2-fluoro-4-{[(1S*,2R*)-2-(1-methyl-1H-pyrazol-5-yl)cyclohexyl]oxy}-N-(2-oxo-2,3-dihydropyrimidin-4-yl)benzenesulfonamide], the IC50 was more than 100000 nM.

As for `Cc1cc(S(=O)(=O)Nc2ccncn2)c(F)cc1O[C@H]1CC(F)(F)CC[C@@H]1c1ccn[nH]1` (relative stereo) [Example 155, 4-{[(1S*,2R*)-5,5-Difluoro-2-(1H-pyrazol-5-yl)cyclohexyl]oxy}-2-fluoro-5-methyl-N-(pyrimidin-4-yl)benzenesulfonamide], the IC50 stood at 28 nM.

Take `O=S(=O)(Nc1ccncn1)c1cc(Cl)c(O[C@H]2CC(F)(F)CC[C@@H]2c2ccn[nH]2)cc1F` (relative stereo) [Example 156, 5-Chloro-4-{[(1S*,2R*)-5,5-difluoro-2-(1H-pyrazol-5-yl)cyclohexyl]oxy}-2-fluoro-N-(pyrimidin-4-yl)benzenesulfonamide]: the IC50 was 41 nM.

On to `Cc1cc(S(=O)(=O)Nc2ccncn2)c(F)cc1O[C@H]1CCC(F)(F)C[C@@H]1c1ccn[nH]1` (relative stereo) [Example 157, 4-{[(1S*,2R*)-4,4-Difluoro-2-(1H-pyrazol-5-yl)cyclohexyl]oxy}-2-fluoro-5-methyl-N-(pyrimidin-4-yl)benzenesulfonamide], for which the IC50 was 50 nM.

With `Cn1nccc1[C@H]1CC[C@@H](O)C[C@@H]1Oc1cc(F)c(S(=O)(=O)Nc2ccncn2)cc1Cl` (relative stereo) [Example 160, 5-Chloro-2-fluoro-4-{[(1S*,2R*,5R*)-5-hydroxy-2-(1-methyl-1H-pyrazol-5-yl)cyclohexyl]oxy}-N-(pyrimidin-4-yl)benzenesulfonamide], the IC50 was 560 nM.

As for `Cn1nccc1[C@H]1C[C@H](O)CC[C@@H]1Oc1cc(F)c(S(=O)(=O)Nc2ccncn2)cc1Cl` (relative stereo) [Example 161, 5-Chloro-2-fluoro-4-{[(1S*,2R*,4R*)-4-hydroxy-2-(1-methyl-1H-pyrazol-5-yl)cyclohexyl]oxy}-N-(pyrimidin-4-yl)benzenesulfonamide], the IC50 worked out at 130 nM.

Consider `Cn1nccc1[C@H]1C[C@@H](O)CC[C@@H]1Oc1cc(F)c(S(=O)(=O)Nc2ccncn2)cc1Cl` (relative stereo) [Example 162, 5-Chloro-2-fluoro-4-{[(1S*,2R*,4S*)-4-hydroxy-2-(1-methyl-1H-pyrazol-5-yl)cyclohexyl]oxy}-N-(pyrimidin-4-yl)benzenesulfonamide], for which the IC50 came out at 820 nM.

For the molecule `Cn1nccc1[C@H]1CC[C@H](O)C[C@@H]1Oc1cc(F)c(S(=O)(=O)Nc2ccncn2)cc1Cl` (relative stereo) [Example 163, 5-Chloro-2-fluoro-4-{[(1S*,2R*,5S*)-5-hydroxy-2-(1-methyl-1H-pyrazol-5-yl)cyclohexyl]oxy}-N-(pyrimidin-4-yl)benzenesulfonamide], the IC50 was 190 nM.

As for `O=S(=O)(Nc1ncns1)c1cc(F)c(O[C@H]2CCCC[C@@H]2c2ccccc2)cc1F` (single isomer, unassigned) [Example 1, 2,5-Difluoro-4-{[(1S*,2R*)-2-phenylcyclohexyl]oxy}-N-(1,2,4-thiadiazol-5-yl)benzenesulfonamide], the IC50 was 120 nM.

For `O=S(=O)(Nc1ncns1)c1cc(F)c(O[C@H]2CCCC[C@@H]2c2ccccc2)cc1F` [Example 2, 2,5-Difluoro-4-{[(1S,2R)-2-phenylcyclohexyl]oxy}-N-(1,2,4-thiadiazol-5-yl)benzenesulfonamide], the IC50 is 20 nM.

Turning to `O=S(=O)(Nc1ncns1)c1cc(F)c(O[C@@H]2CCCC[C@H]2c2ccccc2)cc1F` [Example 75, 2,5-Difluoro-4-{[(1R,2S)-2-phenylcyclohexyl]oxy}-N-(1,2,4-thiadiazol-5-yl)benzenesulfonamide], the IC50 was more than 10000 nM.

Consider `Cn1nccc1[C@H]1CCC(F)(F)C[C@@H]1Oc1cc(F)c(S(=O)(=O)Nc2ccncn2)cc1F` [Example 102, 4-{[(1S,2R)-5,5-Difluoro-2-(1-methyl-1H-pyrazol-5-yl)cyclohexyl]oxy}-2,5-difluoro-N-(pyrimidin-4-yl)benzenesulfonamide], for which the IC50 stood at 36 nM.

With `Cn1nccc1[C@H]1CCC[C@@H]1Oc1ccc(S(=O)(=O)Nc2ccncn2)c(F)c1` [Example 124, 2-Fluoro-4-{[(1S,2R)-2-(1-methyl-1H-pyrazol-5-yl)cyclopentyl]oxy}-N-(pyrimidin-4-yl)benzenesulfonamide], the IC50 came to 2400 nM.

Consider `Cc1cc(S(=O)(=O)Nc2ccncn2)c(F)cc1O[C@@H]1CC(F)(F)CC[C@H]1c1cn[nH]c1` [Example 144, 4-{[(1R,2S)-5,5-Difluoro-2-(1H-pyrazol-4-yl)cyclohexyl]oxy}-2-fluoro-5-methyl-N-(pyrimidin-4-yl)benzenesulfonamide], for which the IC50 is 3400 nM.

`Cc1cc(S(=O)(=O)Nc2ccncn2)c(F)cc1O[C@@H]1CCC[C@H]1c1ccn[nH]1` [Example 149, 2-Fluoro-5-methyl-4-{[(1R,2S)-2-(1H-pyrazol-5-yl)cyclopentyl]oxy}-N-(pyrimidin-4-yl)benzenesulfonamide]: the IC50 is 32000 nM.

In the case of `O=S(=O)(Nc1ccncn1)c1cc(Cl)c(O[C@@H]2CCC[C@H]2c2ccn[nH]2)cc1F` [Example 151, 5-Chloro-2-fluoro-4-{[(1R,2S)-2-(1H-pyrazol-5-yl)cyclopentyl]oxy}-N-(pyrimidin-4-yl)benzenesulfonamide], the IC50 was 33000 nM.

In the case of `O=S(=O)(Nc1ccncn1)c1cc(Cl)c(O[C@@H]2CCCC[C@H]2c2ccn[nH]2)cc1F` [Example 159, 5-Chloro-2-fluoro-4-{[(1R,2S)-2-(1H-pyrazol-5-yl)cyclohexyl]oxy}-N-(pyrimidin-4-yl)benzenesulfonamide], the IC50 amounted to 9800 nM.

As for `Cn1nccc1[C@@H]1C[C@@H](O)CC[C@H]1Oc1cc(F)c(S(=O)(=O)Nc2ccncn2)cc1Cl` [Example 164, 5-Chloro-2-fluoro-4-{[(1R,2S,4S)-4-hydroxy-2-(1-methyl-1H-pyrazol-5-yl)cyclohexyl]oxy}-N-(pyrimidin-4-yl)benzenesulfonamide], the IC50 was more than 10000 nM.

As to `CC(=O)O[C@@H]1CC[C@H](Oc2cc(F)c(S(=O)(=O)Nc3ccncn3)cc2Cl)[C@@H](c2ccnn2C)C1` [Example 166, (1R,3R,4S)-4-[2-Chloro-5-fluoro-4-(pyrimidin-4-ylsulfamoyl)phenoxy]-3-(1-methyl-1H-pyrazol-5-yl)cyclohexyl acetate], the half-maximal inhibitory concentration (IC50) stood at 59 nM.
